From patent US9682955B2, “Quinazoline derivatives useful as CB-1 inverse agonists” (Janssen Pharmaceutica NV, priority 2014, dated 2017)
“And” between values parts separate entries of the source, which are not always exact repeats. Identical values can stand only once. Like-named read-outs stand apart in the source and are kept apart here.

Key:
[1] = target: Human CB1R (Cannabanoid receptor 1) (Homo sapiens (Human), UniProt P21554); experiment: CB-1 in vitro cAMP assay (HTRF); format: cell-based; conditions: mean where tested more than once
Sequence of Human CB1R (Cannabanoid receptor 1) (P21554 whole entry): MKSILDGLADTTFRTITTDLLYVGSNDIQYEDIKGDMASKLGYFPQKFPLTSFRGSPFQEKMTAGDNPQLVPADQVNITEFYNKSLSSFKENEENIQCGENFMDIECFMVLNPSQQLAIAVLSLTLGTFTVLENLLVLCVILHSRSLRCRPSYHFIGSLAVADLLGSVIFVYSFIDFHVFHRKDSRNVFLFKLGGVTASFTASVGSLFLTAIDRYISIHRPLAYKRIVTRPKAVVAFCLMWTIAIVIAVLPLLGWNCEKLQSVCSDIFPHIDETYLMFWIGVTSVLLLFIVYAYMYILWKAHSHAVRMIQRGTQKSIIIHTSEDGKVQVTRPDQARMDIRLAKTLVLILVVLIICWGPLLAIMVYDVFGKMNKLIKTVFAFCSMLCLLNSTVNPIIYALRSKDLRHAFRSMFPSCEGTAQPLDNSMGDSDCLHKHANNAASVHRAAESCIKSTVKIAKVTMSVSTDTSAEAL
Summary of the method: (§1)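 HEK-293 cells stably transfected with the human receptor, plated overnight at 4E5 cells/mL. Compounds given as 1/3 serial dilutions from 10 mM DMSO stocks. Stimulation in HBSS/5 mM HEPES/0.1% BSA with 0.5 mM IBMX and forskolin (1.5 μM in buffer); cAMP measured by competitive HTRF immunoassay (d2-cAMP, cryptate anti-cAMP) against a cAMP standard curve.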

[2] = target: Human CB2R (Cannabanoid receptor 2) (Homo sapiens (Human), UniProt P34972); experiment: CB-2 in vitro cAMP assay (HTRF); format: cell-based; conditions: mean where tested more than once
Sequence of Human CB2R (Cannabanoid receptor 2) (P34972 whole entry): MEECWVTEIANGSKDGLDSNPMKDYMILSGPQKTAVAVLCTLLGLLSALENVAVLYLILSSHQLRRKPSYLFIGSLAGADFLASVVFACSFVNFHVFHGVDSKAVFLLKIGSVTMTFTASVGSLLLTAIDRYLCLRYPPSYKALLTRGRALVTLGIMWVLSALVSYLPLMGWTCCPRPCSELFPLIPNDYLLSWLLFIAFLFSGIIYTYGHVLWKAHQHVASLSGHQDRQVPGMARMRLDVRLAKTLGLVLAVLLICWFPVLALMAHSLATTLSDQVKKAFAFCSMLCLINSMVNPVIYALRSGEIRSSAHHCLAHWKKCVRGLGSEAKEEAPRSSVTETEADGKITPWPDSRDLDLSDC
Summary of the method: as §1

[3] = Mouse Fast PK/BBB (plasma and brain concentration); format: in vivo, Male C57bl/6j mice; conditions: for concentration at 1 h / concentration at 4 h: male, C57bl/6j
Description: Male Sprague Dawley rats were ordered from Charles River (225-250 gm upon arrival). They were fed standard chow diet (Purina 5001) and housed 2 per cage. Male C57bl/6j mice were ordered from Charles River at 22-25 g and housed 3 per cage. They were fed standard chow (Purina 5001). All animals were housed in a temperature-controlled room with 12-hour light/dark cycle. Animals were given food and water ad libitum, except as noted.
[…] Test compounds were administered by oral gavage (5 ml kg^−1).
Male C57bl/6j mice were dosed with test compounds at 30 mg/kg. Plasma was collected via retro-orbital bleeding at 1 hr and 4 hrs after dosing. Whole brain without cerebellum was collected at 4 hrs after dosing. Wet brain weight was recorded before freezing. Brains were homogenized in saline and sent for analysis for determination of concentration of test compound.
Tables 6A and 6B below present results for representative compounds of the present invention, tested according to the procedure as described above. Each compound was tested in three animals (N=3) and administered PO at 20 mg/kg or 30 mg/kg.

[4] = target: hCB1-CHO-K1 membranes (Homo sapiens (Human), UniProt P21554); experiment: CB-1 membrane binding assay ([3H] CP 55,940 displacement); conditions: [3H] CP 55,940 0.4 nM
Sequence of hCB1-CHO-K1 membranes (P21554 whole entry): as the sequence (P21554 whole entry) above
Description: Into Greiner V bottom polypropylene plates, hCB1-CHO-K1 membranes (2 μg/well final concentration) in assay buffer (50 mM Tris-HCl pH 7.4, 5 mM MgCl2 and 0.5 mg/ml (0.05%) Ultra fatty acid free BSA) were dispensed. Membranes were purchased from Perkin Elmer. Test compounds were then added to each well and then [^3H] CP 55, 940 (0.4 nM final well concentration) in assay buffer (50 mM Tris-HCl pH 7.4, 5 mM MgCl2 and 0.5 mg/ml (0.05%) Ultra fatty acid free BSA) was added. Samples were mixed and incubated for 90 min at 30° C. in the Greiner V Bottom Polypropylene plate. After incubation, assay reagents were transferred to a blocked 384 well polypropylene filter plates. The binding reaction was stopped by filtration and washed seven times with ice cold rinse buffer. Filter plates were then dried overnight at room temperature. The next day, plate bottoms were sealed with plate tape and 15 μl MicroScint 20 was added to each well. Plates were incubated for 2h and radioactivity was measured by Topcount.
Total Binding levels were achieved by combining membrane, DMSO, and [^3H] CP-55,940 (also known as 5-(1,1-dimethylheptyl)-2-[(1R,2R,5R)-5-hydroxy-2-(3-hydroxypropyl)cyclohexyl]-phenol). […]
IC50 data was calculated using raw CPM values. […] IC50 values were fit appropriately and calculated using the following equation: […]

[5] = plasma, PO 30 mg/kg, 1 hr, N=3, read-out: PLASMA Mean Conc. ± Std. Dev
[6] = PO 20 mg/kg, 10% PEG400 and 10% Solutol in water, 1 hr, individual animals
[7] = PO 20 mg/kg, 10% PEG400 and 10% Solutol in water, 4 hr, individual animals
[8] = PO 30 mg/kg, 5% NMP and 20% HPβCD ~pH8 in water, 1 hr, individual animals
[9] = PO 30 mg/kg, 5% NMP and 20% HPβCD ~pH8 in water, 4 hr, individual animals

**Q.** With `N=C(N)c1ccc(S(=O)(=O)N2CCC(Nc3ncnc4ccc(C(c5ccc(Cl)cc5)c5ccc(Cl)cc5)cc34)CC2)cc1` [Compound #47, 4-((4-((6-(bis(4-chlorophenyl)methyl)quinazolin-4-yl)amino)piperidin-1-yl)sulfonyl)benzimidamide] as the compound, how does the EC50 [1] read?
**A.** 10 nM

**Q.** And the EC50 [2]?
**A.** 3920 nM

**Q.** And the “BRAIN Mean Conc. ± Std. Dev” value ([3]; PO 30 mg/kg, 1 hr, N=3)?
**A.** BLOQ ± NA

**Q.** And the “BRAIN Mean Conc. ± Std. Dev” value ([3]; PO 30 mg/kg, 4 hr, N=3)?
**A.** BLOQ ± NA

**Q.** And the “PLASMA Mean Conc. ± Std. Dev” value ([3]; PO 30 mg/kg, 4 hr, N=3)?
**A.** BLOQ ± NA

**Q.** What about the concentration at 1 h [3, 5] of the same compound?
**A.** 7.83 ± 1.08 ng/mL

**Q.** What does the source list for `OCC(CO)(CO)COc1nc(NCc2cccc(C(F)(F)F)c2)c2cc(C(c3ccc(Cl)cc3)c3ccc(Cl)cc3)ccc2n1` [Compound #54, 2-(((6-(bis(4-chlorophenyl)methyl)-4-((3-(trifluoromethyl)benzyl)amino)quinazolin-2-yl)oxy)methyl)-2-(hydroxymethyl)propane-1,3-diol]?
**A.** EC50 [1]: 21 nM; EC50 [2]: 4460 nM; BRAIN Mean Conc. ± Std. Dev ([3]; PO 30 mg/kg, 1 hr, N=3): BLOQ ± NA; BRAIN Mean Conc. ± Std. Dev ([3]; PO 30 mg/kg, 4 hr, N=3): BLOQ ± NA; concentration at 1 h [3, 5]: 946 ± 99.4 ng/mL; concentration at 4 h ([3]; plasma, PO 30 mg/kg, 4 hr, N=3, read-out: PLASMA Mean Conc. ± Std. Dev): 1300 ± 155 ng/mL

**Q.** Which EC50 [1] does the source give for `O=C(O)c1ccc(S(=O)(=O)N2CCC(Nc3ncnc4ccc(C(c5ccc(Cl)cc5)c5ccc(Cl)cc5)cc34)CC2)cc1` [Compound #93, 4-((4-((6-(bis(4-chlorophenyl)methyl)quinazolin-4-yl)amino)piperidin-1-yl)sulfonyl)benzoic acid] here?
**A.** 14 nM

**Q.** What about the EC50 [2] of the same compound?
**A.** 323 nM

**Q.** What about the “BRAIN Range of Conc.” value [3, 6] of the same compound?
**A.** ND, ND, ND

**Q.** What about the “PLASMA Range of Conc.” value [3, 6] of the same compound?
**A.** ND, BLOQ, ND

**Q.** And the “BRAIN Range of Conc.” value [3, 7]?
**A.** ND, ND, ND

**Q.** And the “PLASMA Range of Conc.” value [3, 7]?
**A.** 17.155 ng/mL and 6.427 ng/mL

**Q.** And the “BRAIN Range of Conc.” value [3, 8]?
**A.** BLOQ, BLOQ,

**Q.** What about the “PLASMA Range of Conc.” value [3, 8] of the same compound?
**A.** 280 ng/mL and 9.10 ng/mL and 9.00 ng/mL

**Q.** And the “BRAIN Range of Conc.” value [3, 9]?
**A.** BLOQ, BLOQ,

**Q.** And the “PLASMA Range of Conc.” value [3, 9]?
**A.** BLOQ, BLOQ,

**Q.** And the concentration at 4 h ([3]; plasma, PO 20 mg/kg, 10% PEG400 and 10% Solutol in water, 4 hr, individual animals, read-out: PLASMA Range of Conc.)?
**A.** 16.1 ng/mL

**Q.** What does the source list for `CS(=O)(=O)N1CCC(Nc2ncnc3ccc(C(c4ccc(Cl)cc4)c4ccc(Cl)cc4)cc23)CC1` [Compound #140, 6-(bis(4-chlorophenyl)methyl)-N-(1-(methylsulfonyl)piperidin-4-yl) quinazolin-4-amine]?
**A.** EC50 [1]: 24 nM; EC50 [2]: 2450 nM; IC50 [4]: 74 nM

**Q.** Which EC50 [1] does the source give for `FC(F)(F)c1ccc(N2CCC(Nc3ncnc4ccc(C(c5ccc(Cl)cc5)c5ccc(Cl)cc5)cc34)CC2)cc1` [compound 129, 6-(bis(4-chlorophenyl)methyl)-N-(1-(4-(trifluoromethyl)phenyl)piperidin-4-yl)quinazolin-4-amine] here?
**A.** 3 nM

**Q.** And the EC50 [2]?
**A.** 72 nM

**Q.** For `O=S(=O)(N1CCC(CNc2ncnc3ccc(C(c4ccc(Cl)cc4)c4ccc(Cl)cc4)cc23)CC1)C(F)(F)F` [compound 135, 6-(bis(4-chlorophenyl)methyl)-N-((1-(trifluoromethylsulfonyl)piperidin-4-yl)methyl)quinazolin-4-amine], which EC50 [1] is on record?
**A.** 8 nM

**Q.** What about the EC50 [2] of the same compound?
**A.** 2850 nM

**Q.** Which EC50 [1] does the source give for `FC(F)(F)c1ccc(CNc2ncnc3ccc(C(c4ccc(Cl)cc4)c4ccc(Cl)cc4)cc23)cc1` [compound 138, 6-(bis(4-chlorophenyl)methyl)-N-(4-(trifluoromethyl)benzyl)quinazolin-4-amine] here?
**A.** 11 nM

**Q.** And the EC50 [2]?
**A.** > 10000 nM

**Q.** And the concentration at 1 h ([3]; brain, PO 20 mg/kg, 1 hr, N=3, read-out: BRAIN Mean Conc. ± Std. Dev)?
**A.** 61.7 ± 22.6 ng/mL

**Q.** And the concentration at 4 h ([3]; brain, PO 20 mg/kg, 4 hr, N=3, read-out: BRAIN Mean Conc. ± Std. Dev)?
**A.** 192 ± 14 ng/mL

**Q.** What about the concentration at 1 h ([3]; plasma, PO 20 mg/kg, 1 hr, N=3, read-out: PLASMA Mean Conc. ± Std. Dev) of the same compound?
**A.** 3300 ± 537 ng/mL

**Q.** And the concentration at 4 h ([3]; plasma, PO 20 mg/kg, 4 hr, N=3, read-out: PLASMA Mean Conc. ± Std. Dev)?
**A.** 3790 ± 743 ng/mL

**Q.** Which EC50 [1] does the source give for `CCS(=O)(=O)N1CCC(Nc2ncnc3ccc(C(c4ccc(Cl)cc4)c4ccc(Cl)cc4)cc23)CC1` [compound 141, 6-(bis(4-chlorophenyl)methyl)-N-(1-(ethylsulfonyl)piperidin-4-yl) quinazolin-4-amine] here?
**A.** 32 nM

**Q.** What about the EC50 [2] of the same compound?
**A.** 5010 nM
